The source of these data is PubChem BioAssay (NCI).

Some test systems named below: MDA-N; XF 498 CNS; KM20L2 colon; DMS 273 small cell lung; M19-MEL melanoma; DMS 114 small cell lung; DLD-1 colon; RXF-631 renal.
What all share (test): growth of human tumour cells (NCI), 48 h

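Cultured in 96-well plates, cells were exposed to test compound for 48 hours across five concentrations. The concentration for 50% growth inhibition is given as GI50. TGI: concentration producing complete growth inhibition.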 Bounds are passed on as bounds.

As to `CC(C)=CCC(O)C1=CC(=O)c2c(O)ccc(O)c2C1=O` (stereo not given), the TGI in the assay with MDA-N was found to be 2300 nM.

With `Cc1ccc(/C=C/C(=O)c2cccc3ccccc23)cc1`, the TGI with XF 498 CNS was 28.7 µM; in the assay with KM20L2 colon it was 31 µM; in the assay on DMS 273 small cell lung, 47.2 µM; with M19-MEL melanoma, 49.9 µM.

On to `C=CC[C@H](C[C@H](C[C@H](C[C@H](C[C@H](C[C@H](C[C@H](C[C@H](C[C@H](C[C@H](CCCCC)OC)OC)OC)OC)OC)OC)OC)OC)OC)OC`, for which the TGI in the assay on DMS 114 small cell lung, in the assay on DLD-1 colon, in the assay with XF 498 CNS, with KM20L2 colon, in the assay on DMS 273 small cell lung and in the assay with M19-MEL melanoma was over 100 µM throughout.

`COc1nc(NC2OC(COC(C)=O)C(OC(C)=O)C(OC(C)=O)C2OC(C)=O)c2c(OC(C)=O)cc(=O)oc2n1` (stereo not given): the TGI with DMS 114 small cell lung, in the assay with DLD-1 colon, in the assay with XF 498 CNS, in the assay on KM20L2 colon, in the assay with DMS 273 small cell lung and in the assay with M19-MEL melanoma was over 100 µM each time.

For `CCc1c(OC(C)=O)c2c(NC3OCC(OC(C)=O)C(OC(C)=O)C3OC(C)=O)nc(SC)nc2oc1=O` (stereo not given), the TGI with DLD-1 colon, in the assay with XF 498 CNS, in the assay with KM20L2 colon, in the assay on RXF-631 renal and in the assay with M19-MEL melanoma was over 100 µM each time.

Regarding `O=C(Nc1ccccc1-c1nn(C(=S)Nc2ccccc2)c(=S)n(C(=S)Nc2ccccc2)c1=O)C(F)(F)F`, the TGI is 38.9 µM in the assay on DMS 114 small cell lung; over 100 µM with DLD-1 colon; 61.5 µM with XF 498 CNS; over 100 µM with KM20L2 colon; over 100 µM with DMS 273 small cell lung; over 94.9 µM in the assay on M19-MEL melanoma.

`O=c1ccc2ccccc2cc1[O-].O=c1ccc2ccccc2cc1[O-].[O]=[U+2]=[O]`: the GI50 is 19.9 µM in the assay on DMS 114 small cell lung; 19.5 µM in the assay on DLD-1 colon; 19.5 µM in the assay on XF 498 CNS; 4.5 µM in the assay on KM20L2 colon; 6.71 µM with DMS 273 small cell lung; 11.1 µM in the assay on RXF-631 renal. Further, the GI50 with M19-MEL melanoma is 24.8 µM. The TGI in the assay with DMS 114 small cell lung is 55.3 µM; with DLD-1 colon, over 100 µM; in the assay with XF 498 CNS it was 40 µM; in the assay on KM20L2 colon it was 90.1 µM; in the assay on DMS 273 small cell lung, over 100 µM; in the assay on RXF-631 renal, 41.6 µM. In the assay with M19-MEL melanoma, this compound had a TGI of 96.7 µM.

On to `O=C1CCC2(c3ccc(Cl)cc3)Nc3ccncc3N12` (stereo not given), for which the TGI with MDA-N was over 10000 nM.

In the case of `COc1cc(C2CC(C)(O)Oc3cc4c(cc32)OCO4)cc(OC)c1OC` (stereo not given), the TGI in the assay with MDA-N came out at 430 nM.

With `O=c1c(-c2ccccc2)c2oc(c1-c1ccccc1)CSCc1cccc(c1)CSC2`, the TGI in the assay with DMS 114 small cell lung, in the assay on DLD-1 colon, with KM20L2 colon, with DMS 273 small cell lung and with M19-MEL melanoma was over 100 µM each time.

Regarding `CCCCN(CCCC)C(=O)C(=O)C(C(=O)c1ccc(OC)cc1)c1ccc(OC)cc1` (stereo not given), the TGI in the assay with DMS 114 small cell lung, in the assay with DLD-1 colon, in the assay on KM20L2 colon and in the assay on RXF-631 renal was over 100 µM throughout.

As for `CC(=O)O/N=C(/C)c1ccccc1O`, the TGI with DMS 114 small cell lung, with DLD-1 colon, in the assay on XF 498 CNS, in the assay on KM20L2 colon, in the assay with DMS 273 small cell lung and with M19-MEL melanoma was over 100 µM throughout.

Regarding `N#C/C(=C\c1cccc(Cl)c1Cl)c1ccccc1`, the TGI is over 73.1 µM with DMS 114 small cell lung; over 100 µM in the assay on DLD-1 colon; over 57.4 µM in the assay on XF 498 CNS; over 100 µM in the assay with KM20L2 colon; over 54.1 µM in the assay on DMS 273 small cell lung; over 100 µM with RXF-631 renal. In the assay on M19-MEL melanoma, the TGI was over 100 µM.

Turning to `CN(C)CCn1c2c3ccccc3ccc2c2oc(=O)c3ccccc3c21`, the TGI in the assay with DLD-1 colon was over 100 µM; in the assay on XF 498 CNS, 30.1 µM; in the assay with KM20L2 colon, 33.8 µM; in the assay with RXF-631 renal, 31.5 µM; in the assay with M19-MEL melanoma it was 25 µM.

Turning to `Cc1cc2c(C)[nH]nc2c(C(=O)O)c1C`, the TGI with DMS 114 small cell lung, in the assay with DLD-1 colon, in the assay on XF 498 CNS, in the assay on KM20L2 colon, in the assay on DMS 273 small cell lung and in the assay with M19-MEL melanoma was over 100 µM in each case.

On to `N[C@@H]1CCCC[C@@H]1N.O=P([O-])([O-])CN(CCN(CP(=O)([O-])[O-])CP(=O)([O-])[O-])CP(=O)([O-])[O-].[Pt+2]`, for which, in the assay with KM20L2 colon, the GI50 is over 25 µM and the TGI is over 25 µM.

`Cc1ccc(Oc2ccc(C)cc2N)cc1`: the TGI with DMS 114 small cell lung, in the assay on DLD-1 colon, with KM20L2 colon, with DMS 273 small cell lung and with M19-MEL melanoma was over 100 µM throughout.

Consider `CC(C)(C)c1cc2ccc(C(N)=O)cc2c(=O)[nH]1`, for which the TGI with DMS 114 small cell lung, in the assay on DLD-1 colon, with KM20L2 colon, with DMS 273 small cell lung, with RXF-631 renal and in the assay on M19-MEL melanoma was over 100 µM throughout.
